According to patent US12371454B2, “Cyclic peptide compound having Kras inhibitory action” (priority 2019, dated 2025):
Starred links: 1 amine or outer side, 2 acyl side, 3 side chain; linkers in the order of their positions; H or OH if unused. Positions of bridges follow the written chain, without caps; N, C: chain ends. Non-standard residues stand in square brackets, D forms with d. Residues, ends and D or L forms follow the SMILES beside them. *: point of attachment. NMeAbu(3,3-F2-piperidino) = CN[C@@H](CCN1CCCC(F)(F)C1)C(=O)O; hPhe(3-Cl-4-CF3) = N[C@@H](CCc1ccc(C(F)(F)F)c(Cl)c1)C(=O)O; NMePhe(3-Me) = CN[C@@H](Cc1cccc(C)c1)C(=O)O; NMePhe(4-Me) = CN[C@@H](Cc1ccc(C)cc1)C(=O)O; NMePhe(4-F) = CN[C@@H](Cc1ccc(F)cc1)C(=O)O; hPhe(4-Cl) = N[C@@H](CCc1ccc(Cl)cc1)C(=O)O; NMedβ3hAla = C[C@H](CC(=O)[*:2])N(C)[*:1]; NMeAla(cPent) = CN[C@@H](CC1CCCC1)C(=O)O; NMeGly(cPent) = CN[C@H](C(=O)O)C1CCCC1; NMeAla(cPr) = CN[C@@H](CC1CC1)C(=O)O; NMeCha = CN[C@@H](CC1CCCCC1)C(=O)O; NMeCba = CN[C@@H](CC1CCC1)C(=O)O; NMeI = CC[C@H](C)[C@H](NC)C(=O)O; NMeD = CN[C@@H](CC(=O)O)C(=O)O; NMeL = CN[C@@H](CC(C)C)C(=O)O; NMeV = CN[C@H](C(=O)O)C(C)C; d(β3hA) = C[C@@H](N)CC(=O)O; NMeA = CN[C@@H](C)C(=O)O; Piperidide = C1CCN(*)CC1; Ac5c = NC1(C(=O)O)CCCC1; Aze = O=C(O)[C@@H]1CCN1; Sar = CNCC(=O)O

Tests used:
[1] = target: T1, Kras and SOS1 (biotin-tagged human Kras loaded with GDP, His-tagged human SOS1) (Homo sapiens, UniProt P01116, G12D); assay: Protein-protein interaction inhibition between Kras and SOS1 (KrasGl2D-SOS PPI) using AlphaScreen; assay type: binding; conditions: AlphaScreen; biotin-tagged human Kras loaded with GDP, His-tagged human SOS1; read-out: KRAS G12D-SOS PPI IC50
T1 construct: made in house; host or cells: E. coli (stated for Kras only)
Outline: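 Binding between SOS1 and Kras is detected as bead-proximity luminescence: illuminate Ni-conjugated donors (680 nm), collect 520-620 nm emission from streptavidin-conjugated acceptors; Kras carries biotin and GDP loaded after purification, SOS1 carries a His tag.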

[2] = system: Human pancreatic cancer cell line AsPC-1; assay: Measurement of AsPC-1 cell growth inhibition (AsPC-1 CGI); assay type: cell-based; conditions: 96 h
Outline: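 AsPC-1 cells in 15% FBS RPMI-1640 were exposed to test compound for 96 hours at 37° C, with CellTiter-Glo as endpoint.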

T1 sequence (P01116 1-188 isoform P01116-2 G12D): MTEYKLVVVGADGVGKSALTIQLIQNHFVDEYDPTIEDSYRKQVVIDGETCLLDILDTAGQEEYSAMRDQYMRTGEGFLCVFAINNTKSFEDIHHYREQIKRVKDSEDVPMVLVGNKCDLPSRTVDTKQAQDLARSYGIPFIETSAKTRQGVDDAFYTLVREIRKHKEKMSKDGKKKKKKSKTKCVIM

SMILES	IC50 [1] [nM]	IC50 [2] [nM]
CC[C@H](C)[C@@H]1NC(=O)[C@H](CC(C)C)N(C)C(=O)C[C@@H](C(=O)N2CCCCC2)N(C)C(=O)[C@H](C(C)C)N(C)C(=O)C2(CCCC2)NC(=O)[C@@H]2CCCN2C(=O)[C@H](CCc2ccc(Cl)cc2)NC(=O)CN(C)C(=O)[C@H](CC2CCCCC2)N(C)C(=O)CN(C)C(=O)CN(C)C1=O [Compound 893] ([NMeL]I[Sar][Sar][NMeCha][Sar][hPhe(4-Cl)]P[Ac5c][NMeV][NMeD]-Piperidide; lactam N-11)	21	100 to 500
CC[C@H](C)[C@@H]1NC(=O)[C@H](CC2CCCC2)N(C)C(=O)C[C@@H](C)NC(=O)[C@H](C(C)C)N(C)C(=O)C2(CCCC2)NC(=O)[C@@H]2CCCN2C(=O)[C@H](CCc2ccc(C(F)(F)F)c(Cl)c2)NC(=O)CN(C)C(=O)[C@H](CC2CCCCC2)N(C)C(=O)CN(C)C(=O)CN(C)C1=O [Compound 901] (cyclo([Ac5c][NMeV][d(β3hA)][NMeAla(cPent)]I[Sar][Sar][NMeCha][Sar][hPhe(3-Cl-4-CF3)]P))	35	100 to 500
CC[C@H](C)[C@@H]1NC(=O)[C@H](CC(C)C)N(C)C(=O)C[C@@H](C)N(C)C(=O)[C@H]([C@@H](C)CC)N(C)C(=O)C2(CCCC2)NC(=O)[C@@H]2CCCN2C(=O)[C@H](CCc2ccc(C(F)(F)F)c(Cl)c2)NC(=O)CN(C)C(=O)[C@H](CC2CCCCC2)N(C)C(=O)CN(C)C(=O)CN(C)C1=O [Compound 904] (cyclo([Ac5c][NMeI][NMedβ3hAla][NMeL]I[Sar][Sar][NMeCha][Sar][hPhe(3-Cl-4-CF3)]P))	7.3	50 to 100
CC[C@H](C)[C@@H]1NC(=O)[C@H](CC(C)C)N(C)C(=O)C[C@@H](C(=O)N(C)C)N(C)C(=O)[C@H](C2CCCC2)N(C)C(=O)C2(CCCC2)NC(=O)[C@H](CCN2CCCC(F)(F)C2)N(C)C(=O)[C@H](CCc2ccc(C(F)(F)F)c(Cl)c2)NC(=O)CN(C)C(=O)[C@H](CC2CCCCC2)N(C)C(=O)[C@@H]2CCN2C(=O)[C@H](C)N(C)C1=O [Compound 910] ([NMeL]I[NMeA][Aze][NMeCha][Sar][hPhe(3-Cl-4-CF3)][NMeAbu(3,3-F2-piperidino)][Ac5c][NMeGly(cPent)][NMeD]-NMe2; lactam N-11)	4.3	100 to 500
CC[C@H](C)[C@@H]1NC(=O)[C@H](CC2CCC2)N(C)C(=O)C[C@@H](C(=O)N2CCCCC2)N(C)C(=O)[C@H](C(C)C)N(C)C(=O)C2(CCCC2)NC(=O)[C@@H]2CCCN2C(=O)[C@H](CCc2ccc(C(F)(F)F)c(Cl)c2)NC(=O)CN(C)C(=O)[C@H](CC2CCCCC2)N(C)C(=O)CN(C)C(=O)CN(C)C1=O [Compound 911] ([NMeCba]I[Sar][Sar][NMeCha][Sar][hPhe(3-Cl-4-CF3)]P[Ac5c][NMeV][NMeD]-Piperidide; lactam N-11)	4.5	100 to 500
CC[C@H](C)[C@@H]1NC(=O)[C@H](CC(C)C)N(C)C(=O)C[C@@H](C(=O)N(C)C)N(C)C(=O)[C@H]([C@@H](C)CC)N(C)C(=O)C2(CCCC2)NC(=O)[C@H](Cc2cccc(C)c2)N(C)C(=O)[C@H](CCc2ccc(C(F)(F)F)c(Cl)c2)NC(=O)CN(C)C(=O)[C@H](Cc2ccc(C)cc2)N(C)C(=O)[C@@H]2CCN2C(=O)[C@H](C)N(C)C1=O [Compound 912] ([NMeL]I[NMeA][Aze][NMePhe(4-Me)][Sar][hPhe(3-Cl-4-CF3)][NMePhe(3-Me)][Ac5c][NMeI][NMeD]-NMe2; lactam N-11)	12	50 to 100
CC[C@H](C)[C@@H]1NC(=O)[C@H](CC(C)C)N(C)C(=O)C[C@@H](C(=O)N(C)C)N(C)C(=O)[C@H](C2CCCC2)N(C)C(=O)C2(CCCC2)NC(=O)[C@H](Cc2ccc(F)cc2)N(C)C(=O)[C@H](CCc2ccc(C(F)(F)F)c(Cl)c2)NC(=O)CN(C)C(=O)[C@H](CC2CCCCC2)N(C)C(=O)[C@@H]2CCN2C(=O)[C@H](C)N(C)C1=O [Compound 920] ([NMeL]I[NMeA][Aze][NMeCha][Sar][hPhe(3-Cl-4-CF3)][NMePhe(4-F)][Ac5c][NMeGly(cPent)][NMeD]-NMe2; lactam N-11)	15	100 to 500
CC[C@H](C)[C@@H]1NC(=O)[C@H](CC(C)C)N(C)C(=O)C[C@@H](C)N(C)C(=O)[C@H](C(C)C)N(C)C(=O)C2(CCCC2)NC(=O)[C@@H]2CCCN2C(=O)[C@H](CCc2ccc(C(F)(F)F)c(Cl)c2)NC(=O)CN(C)C(=O)[C@H](CC2CC2)N(C)C(=O)CN(C)C(=O)CN(C)C1=O [Compound 930] (cyclo([Ac5c][NMeV][NMedβ3hAla][NMeL]I[Sar][Sar][NMeAla(cPr)][Sar][hPhe(3-Cl-4-CF3)]P))	39	100 to 500
